Measurements: patent US20250129101A1, “Compound, Pharmaceutical Composition Comprising the Same and Method for Treating Cancer Using the Same” (NATIONAL TSING HUA UNIVERSITY, priority 2023, published 2025)
Where two headings read alike, the source gives them in different places.

What was measured:
KIF2C = target: T1, KIF2C (Homo sapiens, UniProt Q99661); assay: In vitro validation: KIF2C kinesin activity, malachite green-based phosphate colorimetric assay; assay type: biochemical; conditions: concentration that inhibits 50% of KIF2C activity
T1 construct: KIF2C (216-598 a.a.); 6xHis (C); made in house; host or cells: E. coli BL21 (DE3), pET-28a
How it was run: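 KIF2C sN+M construct (aa 216-598, C-terminal 6×His, E. coli-expressed) ATPase activity with microtubules from porcine brain tubulin or HEK293 (293Fs) cells in BRB80 (80 mM PIPES pH 6.8, 1 mM GTP, 10% DMSO), 37° C for 2 hr. Released phosphate detected by malachite green reagent, 10 min, A650.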

MDA-MB-231 cells = assay: Cell validation: cytotoxicity in MDA-MB-231 cells (CellTiter-Glo); assay type: cell-based; conditions: cytotoxicity in MDA-MB-231 cells; for IC50: Homo sapiens
How it was run: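 MDA-MB-231 cells were seeded at 2000 cells/well and exposed to compounds for the specified number of days. Medium was then replaced with a 1:1 CellTiter-Glo reagent/serum-supplemented DMEM mix for 10 min, and viability was read as luminescence, proportional to living cell number.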

4T1 R4 cells = assay: Cell viability assay, 4T1 R4 cells; assay type: cell-based, mouse; conditions: for CI (combination index), MTA with 7S9: 2 μM 7S9, Chou and Talalay method; for IC50: 72 hr; for Fold change in chemosensitivity (IC50 single / 7S9 combination): 2 μM 7S9
Procedure: (§1) MCF-7, MDA-MB-231, MDA-MB-468, Hs578T, 4T1, and HeLa cell lines stably expressing H2B-mCherry and eGFP-tubulin (kindly provided by Dr. Anthony A. Hyman, Max-Planck-Institute for Molecular Cell Biology and Genetics, Dresden, Germany) were cultured in high-glucose Dulbecco's Modified Eagle Medium (DMEM). SK-BR-3 cells were cultured in McCoy's Modified 5a Medium. Hs578T cells were cultured in high-glucose DMEM supplemented with an additional 0.01 mg/mL bovine insulin. […] All mentioned media were supplemented with 10% fetal bovine serum (Gibco) and 1% Penicillin/Streptomycin (Corning), and cells were incubated at 37° C. in a humidified atmosphere containing 5% CO2. HEK293 cells were cultured in HE300 medium (GMEP incorporated, Japan) and maintained in suspension culture with 125 rpm and 8% CO2.
(§2) The cancer cells were cultured in a 96-well plate at a confluence of 1000-2000 cells/well with indicated drugs for specific days. When the time was up, the culture medium in the plate was aspirated and replaced with a prepared CellTiter-Glo reagent/DMEM mixture (1:1 mix of CellTiter-Glo reagent and serum-supplemented DMEM). After incubation for 10 min, the luminescence (proportional to the number of living cells) was measured with an ELISA plate reader to determine the cell viability.

4T1 R8 cells = assay: Cell viability assay, 4T1 R8 cells; assay type: cell-based, mouse; conditions: for CI (combination index), MTA with 7S9: 2 μM 7S9, Chou and Talalay method; for IC50: 72 hr; for Fold change in chemosensitivity (IC50 single / 7S9 combination): 2 μM 7S9
Procedure: as §1, §2

[1] = Mus musculus, drug alone, read-out: IC50 (nM), Single
[2] = MTA with 2 μM 7S9, read-out: IC50 (nM), Combination

T1 sequence (Q99661 216-598): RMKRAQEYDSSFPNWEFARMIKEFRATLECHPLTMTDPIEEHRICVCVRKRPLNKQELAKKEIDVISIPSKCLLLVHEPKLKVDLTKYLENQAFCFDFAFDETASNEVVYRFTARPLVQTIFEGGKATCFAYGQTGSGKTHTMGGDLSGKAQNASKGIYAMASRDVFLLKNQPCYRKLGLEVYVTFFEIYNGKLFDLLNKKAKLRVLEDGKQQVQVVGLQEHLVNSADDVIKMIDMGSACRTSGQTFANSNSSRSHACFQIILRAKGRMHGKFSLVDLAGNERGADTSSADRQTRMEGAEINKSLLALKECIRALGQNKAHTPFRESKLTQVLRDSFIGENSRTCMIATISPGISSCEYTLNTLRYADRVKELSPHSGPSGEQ

| EC50 (KIF2C) [µM] | Structure (SMILES) | IC50 (MDA-MB-231 cells) [µM] | further results |
| --- | --- | --- | --- |
| 50 to 100 | CC1=C(C(=O)OC(C)C)C(c2ccc(Cl)cc2)n2c(s/c(=C\c3ccc(OCC(=O)NCC4CCN(C)CC4)cc3)c2=O)=N1 (stereo not drawn) [Compound 138] | 20 to 50 | – |
| 50 to 100 | CC1=C(C(=O)OC(C)C)C(c2ccc(Cl)cc2)n2c(s/c(=C\c3ccc(OCC(=O)N4CCC(N(C)C)CC4)cc3)c2=O)=N1 (stereo not drawn) [Compound 139] | 20 to 50 | – |
| 50 to 100 | CNc1ccc(C2C(C(=O)OC(C)C)=C(C)N=c3s/c(=C\c4ccc(OCC(=O)N5CCN(C)CC5)cc4)c(=O)n32)cc1 (stereo not drawn) [Compound 140] | 20 to 50 | – |
| < 50 | CC1=C(C(=O)OC(C)C)C(c2ccc(C(F)(F)F)cc2)n2c(s/c(=C\c3ccc(OCC(=O)N4CCN(C)CC4)cc3)c2=O)=N1 (stereo not drawn) [Compound 141] | 20 to 50 | – |
| 50 to 100 | CCOC(=O)C1=C(C)N=c2s/c(=C\c3ccc(OCC(=O)N4CCN(C)CC4)cc3)c(=O)n2C1c1ccc(N(C)C)cc1 (stereo not drawn) [Compound 143] | 20 to 50 | – |
| 50 to 100 | CC1=C(C(=O)OC(C)(C)C)C(c2ccc(N(C)C)cc2)n2c(s/c(=C\c3ccc(OCC(=O)N4CCN(C)CC4)cc3)c2=O)=N1 (stereo not drawn) [Compound 144] | 20 to 50 | – |
| < 50 | CCOC(=O)C1=C(C)N=c2s/c(=C\c3ccc(OCC(=O)N4CCN(CC)CC4)cc3)c(=O)n2C1c1ccc(N(C)C)cc1 (stereo not drawn) [Compound 146] | 20 to 50 | – |
| < 50 | CCN1CCN(C(=O)COc2ccc(/C=c3\sc4n(c3=O)C(c3ccc(N(C)C)cc3)C(C(=O)OC(C)C)=C(C)N=4)cc2)CC1 (stereo not drawn) [Compound 147] | – | Cell validation (IC50) (MDA-MB-231 cells): + + |
| < 50 | CCN1CCN(C(=O)COc2ccc(/C=c3\sc4n(c3=O)C(c3ccc(N(C)C)cc3)C(C(=O)OC(C)(C)C)=C(C)N=4)cc2)CC1 (stereo not drawn) [Compound 148] | – | Cell validation (IC50) (MDA-MB-231 cells): + + |
| < 50 | CC1=C(C(=O)O)C(c2ccc(N(C)C)cc2)n2c(s/c(=C\c3ccc(OCC(=O)N4CCC(N5CCN(C)CC5)CC4)cc3)c2=O)=N1 (stereo not drawn) [Compound 149] | > 50 | – |
| 50 to 100 | CCOC(=O)C1=C(C)N=c2s/c(=C\c3ccc(OCC(=O)N4CCC(N5CCN(C)CC5)CC4)cc3)c(=O)n2C1c1ccc(N(C)C)cc1 (stereo not drawn) [Compound 150] | 20 to 50 | – |
| 50 to 100 | CC1=C(C(=O)OC(C)(C)C)C(c2ccc(N(C)C)cc2)n2c(s/c(=C\c3ccc(OCC(=O)N4CCC(N5CCN(C)CC5)CC4)cc3)c2=O)=N1 (stereo not drawn) [Compound 152] | 20 to 50 | – |
| – | CC(=O)O[C@@]12CO[C@@H]1C[C@H](O)[C@@]1(C)C(=O)[C@H](O)C3=C(C)[C@@H](OC(=O)[C@H](O)[C@@H](NC(=O)OC(C)(C)C)c4ccccc4)C[C@@](O)([C@@H](OC(=O)c4ccccc4)[C@H]21)C3(C)C [Docetaxel, docetaxel] | – | CI (combination index), MTA with 7S9 (4T1 R4 cells): 0.45; IC50 (4T1 R4 cells; [1]): 358 nM; CI (combination index), MTA with 7S9 (4T1 R8 cells): 0.50; IC50 (4T1 R8 cells; [1]): 208 nM |
| – | C=C1C[C@@H]2CC[C@@]34C[C@H]5O[C@H]6[C@@H](O3)[C@H]3O[C@H](CC[C@@H]3O[C@H]6[C@H]5O4)CC(=O)C[C@@H]3[C@@H](OC)[C@@H](C[C@H](O)CN)O[C@H]3C[C@H]3O[C@@H](CC[C@@H]1O2)C[C@@H](C)C3=C [Eribulin, eribulin] | – | Fold change in chemosensitivity (IC50 single / 7S9 combination) (4T1 R4 cells): 30; CI (combination index), MTA with 7S9 (4T1 R4 cells): 0.48; IC50 (4T1 R4 cells; [2]): 14.5 nM; IC50 (4T1 R4 cells; [1]): 442 nM; Fold change in chemosensitivity (IC50 single / 7S9 combination) (4T1 R8 cells): 21; CI (combination index), MTA with 7S9 (4T1 R8 cells): 0.54; IC50 (4T1 R8 cells; [2]): 13.6 nM; IC50 (4T1 R8 cells; [1]): 284 nM |
| – | C/C(=C\c1csc(C)n1)[C@@H]1C[C@@H]2O[C@]2(C)CCC[C@H](C)[C@H](O)[C@@H](C)C(=O)C(C)(C)[C@@H](O)CC(=O)N1 [Ixabepilone, ixabepilone] | – | IC50 (4T1 R4 cells; [1]): 358 nM; IC50 (4T1 R8 cells; [1]): 234 nM |
| – | CCC1=C[C@@H]2CN(C1)Cc1c([nH]c3ccccc13)[C@@](C(=O)OC)(c1cc3c(cc1OC)N(C)[C@H]1[C@@](O)(C(=O)OC)[C@H](OC(C)=O)[C@]4(CC)C=CCN5CC[C@]31[C@@H]54)C2 [Vinorelbine, vinorelbine] | – | Fold change in chemosensitivity (IC50 single / 7S9 combination) (4T1 R4 cells): 69; CI (combination index), MTA with 7S9 (4T1 R4 cells): 0.46; IC50 (4T1 R4 cells; [1]): 159 nM; Fold change in chemosensitivity (IC50 single / 7S9 combination) (4T1 R8 cells): 43; CI (combination index), MTA with 7S9 (4T1 R8 cells): 0.51; IC50 (4T1 R8 cells; [1]): 104 nM |

| Structure (SMILES) | EC50 (KIF2C) [µM] | IC50 (MDA-MB-231 cells) [µM] | further results |
| --- | --- | --- | --- |
| CC1=C(C(=O)O)C(c2ccc(N(C)C)cc2)n2c(s/c(=C\c3ccc(OCC(=O)N4CCN(C)CC4)cc3)c2=O)=N1 (stereo not drawn) [Compound 142] | 50 to 100 | > 50 | – |
| CCN1CCN(C(=O)COc2ccc(/C=c3\sc4n(c3=O)C(c3ccc(N(C)C)cc3)C(C(=O)O)=C(C)N=4)cc2)CC1 (stereo not drawn) [Compound 145] | < 50 | > 50 | – |
